Results: patent publication US20160015670A1, “COMPOUND, 1-PALMITIN-2-LINOLEIN-3-OLEIN, AND PHARMACEUTICAL PREPARATION AND USE THEREOF” (priority 2014, published 2016)
≈ marks a conversion by molar mass, not a printed value.

Experiments:
Test in all cases: MTT method in vitro, inhibition of cell growth
Type in all cases: cell-based
[1] = system: COLO205 (human colonic cancer cells); details: COLO 205, 48 h
Source text: (§1) (1) Cell lines: PANC-1 (human pancreatic cancer cells), SKOV3 (human ovarian cancer cells), MCF-7 (human breast cancer cells), SMMC-7721 (human liver cancer cells), A549 (human lung cancer cells), BGC-823 (human gastric cancer cells), COLO205 (human colonic cancer cells), storaged and passaged maintainably in Research and Evaluation Center for Pharmacology, Shanghai Institute of Pharmaceutical Industry;
(§2) The inhibition effects of the compound of formula (I) on the above-mentioned cell lines were detected by using MTT method. The specific procedures were as follows:
(§3) (1) Cell culture: (a) Storaged cells were taken out from the liquid nitrogen, thawed quickly in a 37 water bath, then aseptically transferred into 6 ml of cellular medium in a 10 ml centrifugal tube, centrifuged at 1000 rpm for 5 min. The supernatant was discarded, then the precipitated cells were re-suspended in 5-6 ml cellular media by pipetting and transferred into a flask in a 37 incubator for cell culture; (b) Next day, the flask was taken out from the incubator and the used medium was discarded, then the cells were incubated in 5-6 ml fresh medium in the 37 incubator; (c) On the third day, the flask was taken out from the incubator and the used medium was discarded, then 2-3 ml of PBS (pH7.4) was added into the flask with rocking for cleaning it and the used PBS was discarded. Such a cellular cleaning step was repeated once again. 3-5 drops of 0.25% trypsin solution were added into the flask with sloshing, thus well-distributed in it. The flask was capped and placed in a 37 incubator for about 3 min, and the separation of cells from the flask wall was observed under the microscope. 2 ml of cellular medium was added and cells were separated completely from the flask wall by pipetting, then the cell suspension was transferred into 2 separate clean flasks, each containing 5-6 ml medium. The cell suspension was well-distributed by pipetting, then the flask was placed in a 37 incubator. (d) Step (c) was repeated every other day. […]
(§4) (4) Cells in a logarithmic growth stage were trypsinized and washed, then re-suspended in the medium containing 10% calf serum. The number of living cells was counted in Trypan blue dye exclusion method and cell suspensions were adjusted into a density of 2×10^5 cell/ml. […]
(§5) (7) 100 μl of crystal dissolving solution was added into each well and cells were incubated continuously in the incubator overnight, so as to dissolve the resulted formazan crystals sufficiently. Then, the absorbance value was measured at 570 nm for each well.
(§6) (8) Based on absorbance values, inhibition rates on the cell growth were calculated for sample groups of various concentrations. […]
(§7) (1−mean absorbance of experimental wells/mean absorbance of control wells)×100%

[2] = system: SMMC-7721 (human liver cancer cells); details: SMMC-7721, MTT, 48 h
Source text: as §1, §2, §3, §4, §5, §6, §7

[3] = system: PANC-1 (human pancreatic cancer cells); details: PANC-1, MTT, 48 h
Source text: as §1, §2, §3, §4, §5, §6, §7

[4] = system: BGC-823 (human gastric cancer cells); details: BGC-823, MTT, 48 h
Source text: as §1, §2, §3, §4, §5, §6, §7

IC50 [1]: 0.75 mg/L (≈ 0.878 µM)
IC50 [2]: 0.12 mg/L (≈ 0.141 µM)
IC50 [3]: 0.44 mg/L (≈ 0.515 µM)
IC50 [4]: 0.24 mg/L (≈ 0.281 µM)
Compound: CC(=O)O[C@H]1C(=O)[C@@]2(C)[C@H]([C@H](OC(=O)c3ccccc3)[C@]3(O)C[C@H](OC(=O)[C@H](O)[C@@H](NC(=O)c4ccccc4)c4ccccc4)C(C)=C1C3(C)C)[C@]1(OC(C)=O)CO[C@@H]1C[C@@H]2O [Taxol, reference compound]
